This experiment has as its target GLP-1 Receptor (Homo sapiens, UniProt P43220). The experiment is described as follows: GLP-1R agonist cAMP stimulation assay (HEK293/GLP1R/CRE-LUC cells, cAMP dynamic 2 Kit). The following applies: HEK293/CRE-Luc cell line stably expressing the GLP-1 Receptor, 30 min at 37° C. In kind it is cell-based. The procedure, abridged: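 HEK293 cells stably expressing human GLP-1R with CRE-luciferase, 1000 cells/well in DPBS with 0.5 mM IBMX and 0.1% BSA, treated with compound in 1/2-log serial dilution for 30 min at 37 °C. cAMP then detected by HTRF (cAMP-d2 plus anti-cAMP cryptate), 1 h at room temperature in the dark.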
Sequence of GLP-1 Receptor (P43220 24-463, species assumed): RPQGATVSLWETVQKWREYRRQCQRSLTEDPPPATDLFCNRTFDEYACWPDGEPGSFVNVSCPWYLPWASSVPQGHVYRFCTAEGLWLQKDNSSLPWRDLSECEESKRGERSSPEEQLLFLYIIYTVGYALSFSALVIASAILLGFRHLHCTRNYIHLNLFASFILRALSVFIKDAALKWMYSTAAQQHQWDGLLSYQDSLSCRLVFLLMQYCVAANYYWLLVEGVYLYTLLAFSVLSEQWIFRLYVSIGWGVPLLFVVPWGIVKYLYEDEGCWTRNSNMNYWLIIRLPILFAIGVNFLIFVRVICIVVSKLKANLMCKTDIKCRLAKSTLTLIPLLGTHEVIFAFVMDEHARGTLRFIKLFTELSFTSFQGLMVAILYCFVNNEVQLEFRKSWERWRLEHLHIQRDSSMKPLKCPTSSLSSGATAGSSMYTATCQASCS
The term EC50 denotes the concentration giving half of the maximal effect. A higher EC50 goes with a need for much substance. Compound `Fc1cc(Cl)ccc1C1COc2cccc(C3CCN(Cc4nc5cc(-c6nnc(C(F)(F)F)[nH]6)ncc5n4C[C@@H]4CCO4)CC3)c2O1` (stereo partly drawn) [Compound 457a, 4-[3-(4-chloro-2-fluorophenyl)-2,3-dihydro-1,4-benzodioxin-5-yl]-1-[(3-{[(2S)-oxetan-2-yl]methyl}-6-[5-(trifluoromethyl)-4H-1,2,4-triazol-3-yl]-3H-imidazo[4,5-c]pyridin-2-yl)methyl]piperidine] yielded an EC50 of 0.12 nM. Then `CC1(c2ccc(Cl)cc2F)Oc2ccc(F)c(C3CCN(Cc4nc5cc(-c6nnc(C(F)(F)F)[nH]6)ncc5n4C[C@@H]4CCO4)CC3)c2O1` (stereo partly drawn) [Compound 458a, 4-[2-(4-chloro-2-fluorophenyl)-5-fluoro-2-methyl-2H-1,3-benzodioxol-4-yl]-1-[(3-{[(2S)-oxetan-2-yl]methyl}-6-[5-(trifluoromethyl)-4H-1,2,4-triazol-3-yl]-3H-imidazo[4,5-c]pyridin-2-yl)methyl]piperidine], with 0.3 nM. The same measure for `CC1(c2ccc(Cl)cc2F)Oc2c(F)ccc(C3CCN(Cc4nc5cc(-c6nnc(C(F)(F)F)[nH]6)ncc5n4C[C@@H]4CCO4)CC3)c2O1` (stereo partly drawn) [Compound 459a, 4-[2-(4-chloro-2-fluorophenyl)-7-fluoro-2-methyl-2H-1,3-benzodioxol-4-yl]-1-[(3-{[(2S)-oxetan-2-yl]methyl}-6-[5-(trifluoromethyl)-4H-1,2,4-triazol-3-yl]-3H-imidazo[4,5-c]pyridin-2-yl)methyl]piperidine]: 0.0088 nM. Regarding `O=c1[nH]c(-c2cc3nc(CN4CCC(c5ccnc(OCc6ccc(Cl)cc6F)n5)CC4)n(C[C@@H]4CCO4)c3cn2)no1` [Compound 460a, 3-{2-[(4-{2-[(4-chloro-2-fluorophenyl)methoxy]pyrimidin-4-yl}piperidin-1-yl)methyl]-3-{[(2S)-oxetan-2-yl]methyl}-3H-imidazo[4,5-c]pyridin-6-yl}-4,5-dihydro-1,2,4-oxadiazol-5-one], the response was half-maximal at 0.15 nM (EC50). The same measure for `C[C@]1(c2ccc(Cl)cn2)Oc2cccc(C3CCN(Cc4nc5cc(-c6nnn[nH]6)nnc5n4C[C@@H]4CCO4)CC3)c2O1` [Compound 461a, 5-chloro-2-[(2S)-2-methyl-4-{1-[(7-{[(2S)-oxetan-2-yl]methyl}-3-(1H-1,2,3,4-tetrazol-5-yl)-7H-imidazo[4,5-c]pyridazin-6-yl)methyl]piperidin-4-yl}-2H-1,3-benzodioxol-2-yl]pyridine]: 0.23 nM; for `C[C@]1(c2ccc(Cl)cn2)Oc2cccc(C3CCN(Cc4nc5cc(-c6nnc(C(F)(F)F)[nH]6)nnc5n4C[C@@H]4CCO4)CC3)c2O1` [Compound 462a, 5-chloro-2-[(2S)-2-methyl-4-{1-[(7-{[(2S)-oxetan-2-yl]methyl}-3-[5-(trifluoromethyl)-4H-1,2,4-triazol-3-yl]-7H-imidazo[4,5-c]pyridazin-6-yl)methyl]piperidin-4-yl}-2H-1,3-benzodioxol-2-yl]pyridine]: 0.045 nM; for `C[C@]1(c2ccc(Cl)cn2)Oc2cccc(C3CCN(Cc4nc5cc(-c6noc(=O)[nH]6)nnc5n4C[C@@H]4CCO4)CC3)c2O1` [Compound 463a, 3-[6-({4-[(2S)-2-(5-chloropyridin-2-yl)-2-methyl-2H-1,3-benzodioxol-4-yl]piperidin-1-yl}methyl)-7-{[(2S)-oxetan-2-yl]methyl}-7H-imidazo[4,5-c]pyridazin-3-yl]-4,5-dihydro-1,2,4-oxadiazol-5-one]: 0.35 nM. The same measure for `C[C@]1(c2ccc(Cl)cn2)Oc2cccc(C3CCN(Cc4nc5cc(C(=O)O)nnc5n4C[C@@H]4CCO4)CC3)c2O1` [Compound 464a, 6-({4-[(2S)-2-(5-chloropyridin-2-yl)-2-methyl-2H-1,3-benzodioxol-4-yl]piperidin-1-yl}methyl)-7-{[(2S)-oxetan-2-yl]methyl}-7H-imidazo[4,5-c]pyridazine-3-carboxylic acid]: 0.76 nM. Then `Fc1cc(Cl)ccc1C1COc2cccc(C3CCN(Cc4nc5cc(-c6nnc(C(F)(F)F)[nH]6)nnc5n4C[C@@H]4CCO4)CC3)c2O1` (stereo partly drawn) [Compound 465a, 4-[3-(4-chloro-2-fluorophenyl)-2,3-dihydro-1,4-benzodioxin-5-yl]-1-[(7-{[(2S)-oxetan-2-yl]methyl}-3-[5-(trifluoromethyl)-4H-1,2,4-triazol-3-yl]-7H-imidazo[4,5-c]pyridazin-6-yl)methyl]piperidine], with 0.3 nM; and `CO[C@H](C)Cn1c(CN2CCC(c3cccc4c3O[C@@](C)(c3ccc(Cl)cn3)O4)CC2)nc2cc(-c3noc(=O)[nH]3)ncc21` [Compound 466a, 3-[2-({4-[(2S)-2-(5-chloropyridin-2-yl)-2-methyl-2H-1,3-benzodioxol-4-yl]piperidin-1-yl}methyl)-3-[(2R)-2-methoxypropyl]-3H-imidazo[4,5-c]pyridin-6-yl]-4,5-dihydro-1,2,4-oxadiazol-5-one], with 0.19 nM; and `CC1(c2ccc(Cl)nc2)Oc2cccc(C3CCN(Cc4nc5cc(-c6nnc(C(F)(F)F)[nH]6)ncc5n4C[C@@H]4CCO4)CC3)c2O1` (stereo partly drawn) [Compound 467a, 2-chloro-5-(2-methyl-4-{1-[(3-{[(2S)-oxetan-2-yl]methyl}-6-[5-(trifluoromethyl)-4H-1,2,4-triazol-3-yl]-3H-imidazo[4,5-c]pyridin-2-yl)methyl]piperidin-4-yl}-2H-1,3-benzodioxol-2-yl)pyridine], with 0.076 nM. The compound `Cc1nnc(-c2cc3nc(CN4CCC(c5cccc6c5OC(c5ccc(Cl)cc5F)CO6)CC4)n(C[C@@H]4CCO4)c3cn2)[nH]1` (stereo partly drawn) [Compound 468a, 4-[3-(4-chloro-2-fluorophenyl)-2,3-dihydro-1,4-benzodioxin-5-yl]-1-{[6-(5-methyl-4H-1,2,4-triazol-3-yl)-3-{[(2S)-oxetan-2-yl]methyl}-3H-imidazo[4,5-c]pyridin-2-yl]methyl}piperidine] had an EC50 of 0.53 nM. In the case of `N#Cc1ccc(COc2cc(N3CCN(Cc4nc5cc(-c6nnc(C(F)(F)F)[nH]6)ncc5n4C[C@@H]4CCO4)CC3)ccc2F)c(F)c1` [Compound 469a, 3-fluoro-4-[(2-fluoro-5-{4-[(3-{[(2S)-oxetan-2-yl]methyl}-6-[5-(trifluoromethyl)-4H-1,2,4-triazol-3-yl]-3H-imidazo[4,5-c]pyridin-2-yl)methyl]piperazin-1-yl}phenoxy)methyl]benzonitrile], the response was half-maximal at 0.087 nM (EC50).

Regarding `Fc1cc(Cl)ccc1COc1cc(C2CCN(Cc3nc4cc(-c5nnc(C(F)(F)F)[nH]5)ncc4n3C[C@@H]3CCO3)CC2)ccc1F` [Compound 470a, 4-{3-[(4-chloro-2-fluorophenyl)methoxy]-4-fluorophenyl}-1-[(3-{[(2S)-oxetan-2-yl]methyl}-6-[5-(trifluoromethyl)-4H-1,2,4-triazol-3-yl]-3H-imidazo[4,5-c]pyridin-2-yl)methyl]piperidine], the half-maximal effective concentration (EC50) turned out to be 0.22 nM. On to `N#Cc1ccc(COc2cc(C3CCN(Cc4nc5cc(-c6nnc(C(F)(F)F)[nH]6)ncc5n4C[C@@H]4CCO4)CC3)ccc2F)c(F)c1` [Compound 471a, 3-fluoro-4-[(2-fluoro-5-{1-[(3-{[(2S)-oxetan-2-yl]methyl}-6-[5-(trifluoromethyl)-4H-1,2,4-triazol-3-yl]-3H-imidazo[4,5-c]pyridin-2-yl)methyl]piperidin-4-yl}phenoxy)methyl]benzonitrile], for which the midpoint of the response, the EC50, lay at 0.11 nM. The same measure for `Fc1cc(Cl)ccc1COc1nc(C2CCN(Cc3nc4cc(-c5nnc(C(F)(F)F)[nH]5)ncc4n3C[C@@H]3CCO3)CC2)ccc1F` [Compound 472a, 2-[(4-chloro-2-fluorophenyl)methoxy]-3-fluoro-6-{1-[(3-{[(2S)-oxetan-2-yl]methyl}-6-[5-(trifluoromethyl)-4H-1,2,4-triazol-3-yl]-3H-imidazo[4,5-c]pyridin-2-yl)methyl]piperidin-4-yl}pyridine]: 0.012 nM. Then `CO[C@H](C)Cn1c(CN2CCC(c3cccc4c3O[C@@](C)(c3ccc(Cl)cn3)O4)CC2)nc2cc(-c3nnc(C(F)(F)F)[nH]3)nnc21` [Compound 473a, 5-chloro-2-[(2S)-4-[1-({7-[(2R)-2-methoxypropyl]-3-[5-(trifluoromethyl)-4H-1,2,4-triazol-3-yl]-7H-imidazo[4,5-c]pyridazin-6-yl}methyl)piperidin-4-yl]-2-methyl-2H-1,3-benzodioxol-2-yl]pyridine], with 0.46 nM; and `C[C@]1(c2ccc(Cl)cn2)Oc2cccc(C3CCN(Cc4nc5cc(-c6nnc(C(F)(F)F)[nH]6)nnc5n4C[C@H]4CCOC4)CC3)c2O1` [Compound 474a, 5-chloro-2-[(2S)-2-methyl-4-{1-[(7-{[(3R)-oxolan-3-yl]methyl}-3-[5-(trifluoromethyl)-4H-1,2,4-triazol-3-yl]-7H-imidazo[4,5-c]pyridazin-6-yl)methyl]piperidin-4-yl}-2H-1,3-benzodioxol-2-yl]pyridine], with 1.5 nM.

For `C[C@]1(c2ccc(Cl)cc2F)Oc2cccc(C3CCN(Cc4nc5cc(-c6nnc(C(F)(F)F)[nH]6)nnc5n4C[C@H]4CCOC4)CC3)c2O1` [Compound 475a, 4-[(2S)-2-(4-chloro-2-fluorophenyl)-2-methyl-2H-1,3-benzodioxol-4-yl]-1-[(7-{[(3R)-oxolan-3-yl]methyl}-3-[5-(trifluoromethyl)-4H-1,2,4-triazol-3-yl]-7H-imidazo[4,5-c]pyridazin-6-yl)methyl]piperidine], the EC50 amounted to 0.41 nM.

Consider `C[C@H](Cn1c(CN2CCC(c3cccc4c3O[C@@](C)(c3ccc(Cl)cn3)O4)CC2)nc2cc(-c3nnc(C(F)(F)F)[nH]3)ncc21)OC(F)F` [Compound 476a, 5-chloro-2-[(2S)-4-[1-({3-[(2R)-2-(difluoromethoxy)propyl]-6-[5-(trifluoromethyl)-4H-1,2,4-triazol-3-yl]-3H-imidazo[4,5-c]pyridin-2-yl}methyl)piperidin-4-yl]-2-methyl-2H-1,3-benzodioxol-2-yl]pyridine], for which the EC50 turned out to be 0.25 nM.

(Values after patent publication US20230391760A1, “HETEROCYCLIC GLP-1 AGONISTS” (Gasherbrum Bio, Inc., priority 2020, published 2023).)
